The supplement of paper PMC10307832

How the values were obtained:
Experiment in all cases: relative viability (nuclei count vs DMSO), 5 days (fraction); higher = more cells survive
[1] = compound: Cc1ccc2nc(NCCN)c3ncc(C)n3c2c1 + C[C@@H](Oc1cc(-c2cnn(C3CCNCC3)c2)cnc1N)c1c(Cl)ccc(F)c1Cl [Crizotinib] (partner 1 µM)
In short: (§1)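 Relative viability was taken as the ratio of nuclei in treated wells to nuclei in vehicle wells. Lung cancer cell lines in 1536-well plates received compounds by pin tool one day after seeding, either one drug alone or a fixed anchor-drug dose plus five library-drug doses (not always all listed) in √10 steps. Nuclei were counted on 4× images after 5 days of treatment, and values are medians of duplicate plates.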

[2] = compound: Cc1ccc2nc(NCCN)c3ncc(C)n3c2c1 + Nc1ncn([C@H]2C[C@H](O)[C@@H](CO)O2)c(=O)n1 [Decitabine] (partner 2 µM)
In short: as §1

Salubrinal + Tozasertib = compound: O=C(/C=C/c1ccccc1)NC(NC(=S)Nc1cccc2cccnc12)C(Cl)(Cl)Cl [Salubrinal] + Cc1cc(Nc2cc(N3CCN(C)CC3)nc(Sc3ccc(NC(=O)C4CC4)cc3)n2)n[nH]1 [Tozasertib] (partner 0.1 µM)
In short: as §1

Salubrinal + Vorinostat = compound: O=C(/C=C/c1ccccc1)NC(NC(=S)Nc1cccc2cccnc12)C(Cl)(Cl)Cl [Salubrinal] + O=C(CCCCCCC(=O)Nc1ccccc1)NO [Vorinostat] (partner 1 µM)
In short: as §1

| Cell Line | relative viability ([1]; first compound 0.04 µM) | relative viability ([1]; first compound 0.1265 µM) | relative viability ([1]; first compound 0.4 µM) | relative viability ([1]; first compound 1.265 µM) | relative viability ([1]; first compound 4 µM) | relative viability ([2]; first compound 0.04 µM) | relative viability ([2]; first compound 0.1265 µM) | relative viability ([2]; first compound 0.4 µM) | relative viability ([2]; first compound 1.265 µM) | relative viability ([2]; first compound 4 µM) | relative viability (Salubrinal + Tozasertib; first compound 0.08 µM) | relative viability (Salubrinal + Tozasertib; first compound 0.253 µM) | relative viability (Salubrinal + Tozasertib; first compound 0.8 µM) | relative viability (Salubrinal + Tozasertib; first compound 2.53 µM) | relative viability (Salubrinal + Tozasertib; first compound 8 µM) | relative viability (Salubrinal + Vorinostat; first compound 0.08 µM) | relative viability (Salubrinal + Vorinostat; first compound 0.253 µM) | relative viability (Salubrinal + Vorinostat; first compound 0.8 µM) | relative viability (Salubrinal + Vorinostat; first compound 2.53 µM) | relative viability (Salubrinal + Vorinostat; first compound 8 µM) |
| --- | --- | --- | --- | --- | --- | --- | --- | --- | --- | --- | --- | --- | --- | --- | --- | --- | --- | --- | --- | --- |
| NCI-H1437 | 0.96 | 0.968 | 0.965 | 0.952 | 0.915 | 0.581 | 0.526 | 0.596 | 0.495 | 0.498 | 0.415 | 0.362 | 0.418 | 0.404 | 0.373 | 0.841 | 0.787 | 0.812 | 0.814 | 0.714 |
| COR-L23 | 0.737 | 0.608 | 0.628 | 0.572 | 0.541 | 0.455 | 0.405 | 0.406 | 0.488 | 0.411 | 0.191 | 0.185 | 0.194 | 0.168 | 0.145 | 0.471 | 0.419 | 0.534 | 0.323 | 0.356 |
| ABC-1 | 1.09 | 1.04 | 1.23 | 0.988 | 0.68 | 1.14 | 1.32 | 1.12 | 0.87 | 1.3 | 0.168 | 0.185 | 0.194 | 0.183 | 0.206 | 1.14 | 0.947 | 0.971 | 1.34 | 1.11 |
| SK-MES-1 | 0.924 | 0.939 | 0.911 | 1.03 | 0.912 | 0.36 | 0.462 | 0.421 | 0.445 | 0.398 | 1.01 | 0.816 | 1.04 | 0.895 | 0.694 | 1.35 | 1 | 1.28 | 1.1 | 0.936 |
| NCI-H838 | 0.844 | 0.777 | 0.795 | 0.789 | 0.762 | 0.494 | 0.461 | 0.428 | 0.44 | 0.427 | 0.292 | 0.246 | 0.291 | 0.25 | 0.259 | 0.764 | 0.736 | 0.728 | 0.697 | 0.751 |
| SW 900 |  |  |  |  |  |  | 0.43 | 0.448 | 0.354 | 0.458 | 0.539 |  | 0.681 | 0.568 | 0.337 | 0.735 | 0.379 | 0.731 | 0.505 | 0.804 |
| A549 | 0.826 | 0.744 | 0.753 | 0.547 | 0.485 | 0.281 | 0.238 | 0.207 | 0.299 | 0.219 |  |  |  |  |  |  |  |  |  |  |
| A-427 | 1.01 | 1.01 | 0.835 | 0.966 | 0.942 | 0.557 | 0.561 | 0.547 | 0.58 | 0.539 | 0.22 | 0.226 | 0.227 | 0.227 | 0.21 | 0.859 | 0.905 | 0.896 | 0.814 | 0.827 |
| NCI-H1792 | 1.03 | 1.03 | 0.946 | 1.01 | 0.905 | 0.614 | 0.553 |  | 0.511 | 0.461 |  |  |  |  |  |  |  |  |  |  |
| LCLC-97TM1 | 0.379 | 0.394 | 0.255 | 0.287 | 0.293 | 0.215 | 0.21 | 0.244 | 0.22 | 0.236 | 0.238 | 0.157 | 0.266 | 0.188 | 0.165 | 0.751 | 0.739 | 1.04 | 0.939 | 0.656 |
| NCI-H1703 | 0.89 | 0.679 | 0.623 | 0.709 | 0.563 |  |  |  |  |  |  |  |  |  |  |  |  |  |  |  |
| LCLC-103H | 1.07 | 1.03 | 1.05 | 1.07 | 1.06 | 0.71 | 0.81 | 0.731 | 0.717 | 0.735 | 0.487 | 0.445 | 0.404 | 0.498 | 0.42 | 0.725 | 0.716 | 0.891 | 0.714 | 0.748 |
| PC-3 [JPC-3] | 0.973 | 0.992 | 0.974 | 0.947 | 0.966 | 0.831 | 0.889 | 0.854 | 0.846 | 0.761 | 1.12 | 0.649 | 0.857 | 0.896 | 0.831 | 0.713 | 0.71 | 1.07 | 0.934 | 0.762 |
| Calu-6 | 0.803 | 0.776 | 0.794 | 0.77 | 0.426 |  |  |  |  |  |  |  |  |  |  |  |  |  |  |  |
| NCI-H1648 |  |  |  |  |  | 0.521 | 0.5 | 0.568 | 0.528 | 0.431 | 0.466 | 0.586 | 0.334 | 0.501 | 0.247 | 0.431 | 0.419 | 0.649 | 0.345 | 0.242 |
| EBC-1 | 0.219 | 0.204 | 0.206 | 0.207 | 0.17 |  |  |  |  |  |  |  |  |  |  |  |  |  |  |  |
| NCI-H1299 | 0.9 | 0.937 | 0.951 | 0.917 | 0.659 |  |  |  |  |  |  |  |  |  |  |  |  |  |  |  |
| NCI-H2228 | 0.51 | 0.436 | 0.53 | 0.346 | 0.405 |  |  |  |  |  | 0.268 | 0.304 | 0.283 | 0.222 | 0.197 | 0.99 |  | 0.652 | 0.659 | 0.642 |
| NCI-H522 |  |  |  |  |  | 0.573 | 0.795 | 0.765 | 0.62 | 0.675 | 0.566 | 0.588 | 0.524 | 0.589 | 0.569 | 1.03 | 0.944 | 0.972 | 0.889 | 0.844 |
| IA-LM | 1.05 | 0.945 | 0.631 | 0.787 | 0.631 |  |  |  |  |  |  |  |  |  |  | 0.974 | 0.645 | 0.882 | 0.816 | 1.03 |
| NCI-H1793 |  |  |  |  |  | 0.32 | 0.5 | 0.439 | 0.383 | 0.453 | 0.504 | 0.637 | 0.234 | 0.26 | 0.326 | 0.942 | 0.57 | 0.995 | 0.814 | 0.719 |
| NCI-H1623 |  |  |  |  |  |  |  |  |  |  | 0.431 | 0.434 | 0.445 | 0.396 | 0.412 |  |  |  |  |  |
| CAL-12T | 0.787 | 0.716 | 0.725 | 0.603 | 0.344 |  |  |  |  |  | 0.32 | 0.279 | 0.323 | 0.241 | 0.241 | 0.903 | 0.676 | 0.989 | 0.681 | 0.672 |
